Laboratory results published in patent US9238659B2, “Method of using binuclear gold (I) compounds for cancer treatment” (University of Hong Kong, priority 2012, dated 2016).

Legend:
[1] = tested on: cervical epithelioid carcinoma (HeLa); assay: MTT cytotoxicity assay, HeLa; assay type: cell-based, human; conditions: 72 h of incubation
[2] = tested on: hepatocellular carcinoma (HepG2); assay: MTT cytotoxicity assay, HepG2; assay type: cell-based, human; conditions: 72 h of incubation
breast carcinoma (MCF-7) = assay: MTT cytotoxicity assay, MCF-7; assay type: cell-based, human; conditions: 72 h of incubation
[3] = tested on: human nasopharyngeal carcinoma (HONE1); assay: MTT cytotoxicity assay, HONE1; assay type: cell-based; conditions: 72 h of incubation
[4] = tested on: human nasopharyngeal carcinoma (SUNE1); assay: MTT cytotoxicity assay, SUNE1; assay type: cell-based; conditions: 72 h of incubation
H1975 = assay: MTT cytotoxicity assay, H1975; assay type: cell-based, human; conditions: 72 h of incubation
lung carcinoma (HCC827) = assay: MTT cytotoxicity assay, HCC827; assay type: cell-based, human; conditions: 72 h of incubation
[5] = Reactivity towards physiological thiols (ESI-MS monitoring of reaction with GSH); assay type: physicochemical; conditions: GSH […]10^−5M or 5×10^−5M, about 45 min
Protocol: FIGS. 6A-C show stability tests: (A) UV/vis absorption of 1 in PBS (containing 5% acetonitrile, v/v) at different time point; (B) Linear response of ESI-MS intensity of 1 versus concentration; (C) Kinetics analysis of reaction of 1 with GSH, auranofin was used as a reference compound. Unreacted compound percentage was calculated by combined MS intensity of each 10 scans at different time point then divided by pre-determined MS intensity of initial concentration. It was believed that high reactivity of the gold(I) anticancer drugs towards physiological thiols may fail the drugs targeting to the solid tumor tissue thus hamper the application for in vivo cancer treatment. As a result, high resolution ESI-MS was applied to monitor the reaction of 1 with thiol-containing GSH.

`CCN(CC)C1=[S+][Au-][P+](c2ccccc2)(c2ccccc2)C[P+](c2ccccc2)(c2ccccc2)[Au-][S]1.O=S(=O)(O)C(F)(F)F` [Compound 4, [Au2-dppm-dedt] (OTf)] showed an IC50 [1] of 0.63 µM, an IC50 [2] of 0.95 ± 0.58 µM and an IC50 (breast carcinoma (MCF-7)) of 0.5 ± 0.06 µM. It also gave an IC50 [3] of 0.59 ± 0.04 µM, an IC50 [4] of 1.62 ± 0.44 µM and an IC50 (H1975) of less than 0.19 µM. For the same compound, the IC50 (lung carcinoma (HCC827)) was 0.48 ± 0.06 µM.
In the case of `CCN(CC)C1=[S+][Au-][P+](C2CCCCC2)(C2CCCCC2)C[P+](C2CCCCC2)(C2CCCCC2)[Au-][S]1.O=S(=O)(O)C(F)(F)F` [Compound 3, [Au2-dcpm-dedt] (OTf)], the IC50 [1] is reported as less than 0.39 µM, the IC50 [2] is reported as 0.54 ± 0.07 µM and the IC50 (breast carcinoma (MCF-7)) is reported as 0.41 ± 0.2 µM. For the same compound, the IC50 [3] was 0.41 ± 0.07 µM and the IC50 [4] was 0.67 ± 0.28 µM.
For `CC(=O)OC[C@H]1O[C@@H]([S-])[C@H](OC(C)=O)[C@@H](OC(C)=O)[C@@H]1OC(C)=O.CCP(CC)CC.[Au+]` [auranofin, reference compound], the “reaction towards GSH (reference compound)” value [5] was “fast reaction towards GSH”.
